Where two headings read alike, the source gives them in different places. Some results are limits rather than exact numbers.

Holding throughout (type): cell-based
Assay [1] concerns the target GluN1/GluN2A glutamate receptors (human GRIN1/GRIN2A) expressed in HEK293 cells (Homo sapiens (Human), UniProt Q05586+Q12879). The assay can be described thus: Whole-cell patch clamp of mammalian cells (Ionworks Barracuda), positive allosteric modulation, GluN1/GluN2A. The following applies: for Emax: read-out: GluN2A PCA EMax (%). Put shortly: (§1)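 Ionworks Barracuda perforated-patch recordings, holding −70 mV, −40 mV during application; CsCl/CsF intracellular pH 7.2, HB-PS extracellular pH 7.4 with 5 mM CaCl2. 5 min pre-application of test article alone, then co-application with EC20 L-glutamate plus 30 μM glycine; potentiation read as peak current amplitude.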
(In general: In patch-clamp work, channel activity is measured electrically.)

Assay [2] concerns the target GluN2B glutamate receptors expressed in mammalian cells (Homo sapiens (Human), UniProt Q05586+Q13224). Briefly: Whole-cell patch clamp of mammalian cells (Ionworks Barracuda), positive allosteric modulation, GluN2B. As to conditions: for Emax: read-out: GluN2B PCA EMax (%). Put shortly: as §1
In assay [3] the target is glutamate-activated channels of the GRIN1/2A subtype stably transfected in HEK 293 cells (Homo sapiens (Human), UniProt Q05586+Q12879). The assay can be described thus: Automated patch-clamp system (QPatch HTX), percent potentiation at 1 μM. As to conditions: HEK293, 1 μM test compound, 300 μM NMDA with 8 μM glycine, HEK 293 GRIN1/2A, read-out: GluN2A PCA % potentiation at 1 μM. Put shortly: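 Tetracycline-induced HEK 293 cells stably expressing human GRIN1/2A were whole-cell recorded on QPatch HTX in Mg-free bath solution at pH 7.4. Compound at 1.0 μM (0.1% DMSO) was co-applied with submaximal 300 μM NMDA plus 8 μM glycine, and percent potentiation was recorded.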
Chain of glutamate-activated channels of the GRIN1/2A subtype stably transfected in HEK 293 cells (Q12879 whole entry, looked up, other chains not shown): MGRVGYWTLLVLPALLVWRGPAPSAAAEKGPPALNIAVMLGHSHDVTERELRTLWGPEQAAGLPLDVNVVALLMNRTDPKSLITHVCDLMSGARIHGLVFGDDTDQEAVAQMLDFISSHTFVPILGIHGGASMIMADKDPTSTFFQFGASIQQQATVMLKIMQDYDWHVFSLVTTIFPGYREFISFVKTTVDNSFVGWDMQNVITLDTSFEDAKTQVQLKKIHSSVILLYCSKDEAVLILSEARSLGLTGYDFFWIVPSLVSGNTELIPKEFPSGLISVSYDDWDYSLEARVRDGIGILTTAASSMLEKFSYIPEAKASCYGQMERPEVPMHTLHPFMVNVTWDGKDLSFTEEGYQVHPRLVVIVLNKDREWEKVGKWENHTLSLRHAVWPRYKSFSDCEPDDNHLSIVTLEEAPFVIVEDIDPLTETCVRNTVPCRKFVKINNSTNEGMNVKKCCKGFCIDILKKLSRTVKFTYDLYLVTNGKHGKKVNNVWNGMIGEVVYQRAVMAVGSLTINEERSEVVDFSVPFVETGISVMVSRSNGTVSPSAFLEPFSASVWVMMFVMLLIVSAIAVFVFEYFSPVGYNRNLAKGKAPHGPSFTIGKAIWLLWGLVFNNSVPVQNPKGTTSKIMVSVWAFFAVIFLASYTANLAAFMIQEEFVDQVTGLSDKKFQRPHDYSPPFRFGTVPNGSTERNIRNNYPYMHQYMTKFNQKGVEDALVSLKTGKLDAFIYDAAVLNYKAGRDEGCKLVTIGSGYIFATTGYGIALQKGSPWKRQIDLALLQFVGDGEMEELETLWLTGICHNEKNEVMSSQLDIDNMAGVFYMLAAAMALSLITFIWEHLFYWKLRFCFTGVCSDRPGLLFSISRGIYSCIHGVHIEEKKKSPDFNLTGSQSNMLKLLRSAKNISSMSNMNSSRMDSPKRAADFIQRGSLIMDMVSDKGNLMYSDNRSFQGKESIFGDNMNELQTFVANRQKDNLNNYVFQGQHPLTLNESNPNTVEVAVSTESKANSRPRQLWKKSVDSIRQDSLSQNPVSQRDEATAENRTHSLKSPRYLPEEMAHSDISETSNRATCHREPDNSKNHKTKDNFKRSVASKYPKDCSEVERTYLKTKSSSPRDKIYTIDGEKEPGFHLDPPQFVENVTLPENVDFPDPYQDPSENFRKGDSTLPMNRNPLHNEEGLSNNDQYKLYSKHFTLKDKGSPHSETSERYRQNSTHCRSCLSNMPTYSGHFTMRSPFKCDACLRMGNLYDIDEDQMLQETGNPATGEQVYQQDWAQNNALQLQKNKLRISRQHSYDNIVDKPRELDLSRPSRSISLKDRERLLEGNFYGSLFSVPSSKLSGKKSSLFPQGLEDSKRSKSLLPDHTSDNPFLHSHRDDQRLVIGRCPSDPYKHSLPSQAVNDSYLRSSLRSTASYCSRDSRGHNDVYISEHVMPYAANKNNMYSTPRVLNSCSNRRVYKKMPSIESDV

The mark [4] stands for this setting: peak current amplitude, co-application with EC20 L-glutamate and 30 μM glycine, HEK293, read-out: GluN2A PCA EC50.
[5] abbreviates: peak current amplitude, co-application with EC20 L-glutamate and 30 μM glycine, HEK293.
Where [6] appears, read: peak current amplitude, co-application with EC20 L-glutamate and 30 μM glycine, read-out: GluN2B PCA EC50.
Setting [7] is: peak current amplitude, co-application with EC20 L-glutamate and 30 μM glycine.

Chain of GluN1/GluN2A glutamate receptors (human GRIN1/GRIN2A) expressed in HEK293 cells (Q12879 whole entry, looked up, other chains not shown): as above
Chain of GluN2B glutamate receptors expressed in mammalian cells (Q13224 27-1484, other chains not shown): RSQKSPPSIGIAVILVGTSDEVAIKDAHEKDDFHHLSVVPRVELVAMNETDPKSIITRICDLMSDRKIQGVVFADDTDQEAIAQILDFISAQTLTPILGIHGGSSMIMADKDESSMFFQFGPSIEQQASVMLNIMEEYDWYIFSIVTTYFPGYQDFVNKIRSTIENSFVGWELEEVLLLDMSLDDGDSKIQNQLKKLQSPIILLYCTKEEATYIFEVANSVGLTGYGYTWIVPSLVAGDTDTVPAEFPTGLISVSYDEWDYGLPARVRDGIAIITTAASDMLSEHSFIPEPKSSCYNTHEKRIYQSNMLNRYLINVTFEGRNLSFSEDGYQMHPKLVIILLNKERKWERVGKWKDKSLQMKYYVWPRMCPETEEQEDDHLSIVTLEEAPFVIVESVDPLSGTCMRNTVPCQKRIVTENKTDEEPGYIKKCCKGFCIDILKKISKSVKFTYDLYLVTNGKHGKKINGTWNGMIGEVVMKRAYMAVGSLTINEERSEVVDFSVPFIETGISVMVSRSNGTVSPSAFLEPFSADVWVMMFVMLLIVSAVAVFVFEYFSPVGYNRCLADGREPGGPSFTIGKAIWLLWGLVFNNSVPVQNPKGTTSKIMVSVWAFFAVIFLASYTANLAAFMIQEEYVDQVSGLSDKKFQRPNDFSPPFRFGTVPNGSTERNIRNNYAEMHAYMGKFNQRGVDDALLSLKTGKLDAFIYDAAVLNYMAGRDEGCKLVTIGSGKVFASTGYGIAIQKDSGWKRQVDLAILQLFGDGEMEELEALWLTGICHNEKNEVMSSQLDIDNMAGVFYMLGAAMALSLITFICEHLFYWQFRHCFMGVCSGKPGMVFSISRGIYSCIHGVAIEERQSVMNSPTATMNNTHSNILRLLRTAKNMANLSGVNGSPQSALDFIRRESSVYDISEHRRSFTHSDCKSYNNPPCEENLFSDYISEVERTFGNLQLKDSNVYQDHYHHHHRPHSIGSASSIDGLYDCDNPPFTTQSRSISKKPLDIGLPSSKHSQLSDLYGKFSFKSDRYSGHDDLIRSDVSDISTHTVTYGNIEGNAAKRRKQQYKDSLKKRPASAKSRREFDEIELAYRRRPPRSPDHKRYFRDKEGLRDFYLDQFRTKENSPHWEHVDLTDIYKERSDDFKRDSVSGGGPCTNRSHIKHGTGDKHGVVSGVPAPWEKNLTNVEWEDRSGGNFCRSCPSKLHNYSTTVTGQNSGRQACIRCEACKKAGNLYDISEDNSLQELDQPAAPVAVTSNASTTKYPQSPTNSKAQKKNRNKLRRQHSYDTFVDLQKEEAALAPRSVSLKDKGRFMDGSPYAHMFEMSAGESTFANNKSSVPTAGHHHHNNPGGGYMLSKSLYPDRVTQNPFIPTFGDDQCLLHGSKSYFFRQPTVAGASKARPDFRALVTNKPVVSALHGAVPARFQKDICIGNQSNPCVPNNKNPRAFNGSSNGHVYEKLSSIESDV

In general, EC50 refers to the concentration that produces a half-maximal response. The Emax is the size of the effect at its maximum, as opposed to the concentration needed. As for `CC[C@]1(O)CC[C@@]2(C)[C@H](CC[C@@H]3[C@@H]2CC[C@]2(C)[C@@H]([C@H](C)[C@H](O)CC4CCC(C)(C)CC4)CC[C@@H]32)C1` [Compound 87, (3S,5R,8R,9S,10S,13S,14S,17R)-17-((2S,3R)-4-(4,4-dimethylcyclohexyl)-3-hydroxybutan-2-yl)-3-ethyl-10,13-dimethylhexadecahydro-1H-cyclopenta[a]phenanthren-3-ol], the EC50 in assay [1] (setting [4]) and in assay [2] was > 1 µM in each case. Besides, the Emax in assay [1] (setting [5]) and in assay [2] was < 100% throughout. Further, in assay [3], the activation at 1 µM is -10 to 10%.

Turning to `CC[C@]1(O)CC[C@@]2(C)[C@@H](CC[C@@H]3[C@@H]2CC[C@]2(C)[C@@H]([C@H](C)[C@H](O)CC4CCCC4)CC[C@@H]32)C1` [Compound 84, (3S,5S,8R,9S,10S,13S,14S,17R)-17-((2S,3R)-4-cyclopentyl-3-hydroxybutan-2-yl)-3-ethyl-10,13-dimethylhexadecahydro-1H-cyclopenta[a]phenanthren-3-ol], the EC50 in assay [1] and in assay [2] (setting [6]) was > 1 µM in each case. The maximum response (Emax) in assay [1] (setting [5]) and in assay [2] (setting [7]) was < 100% in each case. Further, in assay [3], the activation at 1 µM is -10 to 10%.

`CC[C@]1(O)CC[C@@]2(C)C(=CC[C@H]3[C@@H]4CC[C@H]([C@H](C)[C@H](O)CC5CCCC5)[C@@]4(C)CC[C@@H]32)C1` [Compound 46, (3S,8S,9S,10R,13S,14S,17R)-17-((2S,3R)-4-cyclopentyl-3-hydroxybutan-2-yl)-3-ethyl-10,13-dimethyl-2,3,4,7,8,9,10,11,12,13,14,15,16,17-tetradecahydro-1H-cyclopenta[a]phenanthren-3-ol]: the concentration for a half-maximal effect (EC50) in assay [1] and in assay [2] (setting [6]) was > 1 µM throughout. Also, the Emax in assay [1] (setting [5]) and in assay [2] (setting [7]) was < 100% in each case. For the same compound, the activation at 1 µM in assay [3] was -40 to -10%.

As to `CC[C@]1(O)CC[C@@]2(C)C(=CC[C@H]3[C@@H]4CC[C@H]([C@H](C)[C@@H](O)CCC5CC5)[C@@]4(C)CC[C@@H]32)C1` [Compound 69, (3S,8S,9S,10R,13S,14S,17R)-17-((2S,3S)-5-cyclopropyl-3-hydroxypentan-2-yl)-3-ethyl-10,13-dimethyl-2,3,4,7,8,9,10,11,12,13,14,15,16,17-tetradecahydro-1H-cyclopenta[a]phenanthren-3-ol], the EC50 in assay [1] and in assay [2] (setting [6]) was > 1 µM in each case. Also, the Emax in assay [1] (setting [5]) and in assay [2] (setting [7]) was < 100% in each case. In addition, the activation at 1 µM in assay [3] was -10 to 10%.

For `CC[C@]1(O)CC[C@@]2(C)C(=CC[C@H]3[C@@H]4CC[C@H]([C@H](C)[C@H](O)CCC5CC5)[C@@]4(C)CC[C@@H]32)C1` [Compound 6, (3S,8S,9S,10R,13S,14S,17R)-17-((2S,3R)-5-cyclopropyl-3-hydroxypentan-2-yl)-3-ethyl-10,13-dimethyl-2,3,4,7,8,9,10,11,12,13,14,15,16,17-tetradecahydro-1H-cyclopenta[a]phenanthren-3-ol], the EC50 in assay [1] and in assay [2] (setting [6]) was > 1 µM in each case. Further, the Emax in assay [1] (setting [5]) and in assay [2] (setting [7]) was < 100% each time. Moreover, in assay [3], the activation at 1 µM is -10 to 10%.

Take `CCC[C@H](O)[C@@H](C)[C@H]1CC[C@H]2[C@@H]3CC=C4C[C@](O)(CC)CC[C@]4(C)[C@H]3CC[C@]12C` [Compound 72, (3S,8S,9S,10R,13S,14S,17R)-3-ethyl-17-((2S,3S)-3-hydroxyhexan-2-yl)-10,13-dimethyl-2,3,4,7,8,9,10,11,12,13,14,15,16,17-tetradecahydro-1H-cyclopenta[a]phenanthren-3-ol]: the concentration for a half-maximal effect (EC50) in assay [1] and in assay [2] (setting [6]) was > 1 µM throughout. For the same compound, the Emax in assay [1] (setting [5]) and in assay [2] (setting [7]) was < 100% in each case. In addition, the activation at 1 µM in assay [3] was -40 to -10%.

`CC[C@]1(O)CC[C@@]2(C)[C@H](CC[C@@H]3[C@@H]2CC[C@]2(C)[C@@H]([C@H](C)[C@@H](O)CC4CCCC4)CC[C@@H]32)C1` [Compound 94, (3S,5R,8R,9S,10S,13S,14S,17R)-17-((2S,3S)-4-cyclopentyl-3-hydroxybutan-2-yl)-3-ethyl-10,13-dimethylhexadecahydro-1H-cyclopenta[a]phenanthren-3-ol]: the concentration for a half-maximal effect (EC50) in assay [1] and in assay [2] (setting [6]) was > 1 µM each time. The Emax in assay [1] (setting [5]) and in assay [2] (setting [7]) was < 100% in each case. The activation at 1 µM in assay [3] was -40 to -10%.

Take `CC[C@]1(O)CC[C@@]2(C)[C@@H](CC[C@@H]3[C@@H]2CC[C@]2(C)[C@@H]([C@H](C)[C@@H](O)CC4CCC(C)(C)CC4)CC[C@@H]32)C1` [Compound 4, (3S,5S,8R,9S,10S,13S,14S,17R)-17-((2S,3S)-4-(4,4-dimethylcyclohexyl)-3-hydroxybutan-2-yl)-3-ethyl-10,13-dimethylhexadecahydro-1H-cyclopenta[a]phenanthren-3-ol]: the values for the EC50 in assay [1] (setting [4]) and in assay [2] were 0.001 to 0.1 µM and > 1 µM, respectively. Besides, the maximal effect (Emax) in assay [1] (setting [5]) and in assay [2] was < 100% throughout. Also, the activation at 1 µM in assay [3] is < -40%.

`CC[C@]1(O)CC[C@@]2(C)[C@@H](CC[C@@H]3[C@@H]2CC[C@]2(C)[C@@H]([C@H](C)[C@@H](O)CC4CCCC4)CC[C@@H]32)C1` [Compound 98, (3S,5S,8R,9S,10S,13S,14S,17R)-17-((2S,3S)-4-cyclopentyl-3-hydroxybutan-2-yl)-3-ethyl-10,13-dimethylhexadecahydro-1H-cyclopenta[a]phenanthren-3-ol]: the EC50 in assay [1] and in assay [2] (setting [6]) was > 1 µM each time. Also, the Emax in assay [1] (setting [5]) and in assay [2] (setting [7]) was < 100% each time. In assay [3], the activation at 1 µM was -40 to -10%.

On to `CC[C@]1(O)CC[C@@]2(C)C(=CC[C@H]3[C@@H]4CC[C@H]([C@H](C)[C@H](O)CC5CCC(C)(C)CC5)[C@@]4(C)CC[C@@H]32)C1` [Compound 12, (3S,8S,9S,10R,13S,14S,17R)-17-((2S,3R)-4-(4,4-dimethylcyclohexyl)-3-hydroxybutan-2-yl)-3-ethyl-10,13-dimethyl-2,3,4,7,8,9,10,11,12,13,14,15,16,17-tetradecahydro-1H-cyclopenta[a]phenanthren-3-ol], for which the EC50 in assay [1] and in assay [2] (setting [6]) was > 1 µM in each case. The maximal response (Emax) in assay [1] (setting [5]) and in assay [2] (setting [7]) was < 100% throughout. Also, the activation at 1 µM in assay [3] is -10 to 10%.

Values taken from US11613556B2, “Oxysterols and methods of use thereof” (Sage Therapeutics, Inc., priority 2016, dated 2023).
